ChEMBL document CHEMBL4507327 (2021)

How the values were obtained:
[1] = target: L-type calcium channel, dihydropyridine site (Cav1.2 alpha-1C) (Homo sapiens, UniProt Q13936); test: Inhibition of Calcium Channel L-Type, Dihydropyridine at 10 µM in the Eurofins-Panlabs radioligand binding assay (Eurofins_assay_214600); parameters: ligand concentration 0.1 nM, non-specific ligand with concentration 1 µM Nitrendipine, incubation time 90 min, incubation temperature 25 °C; conditions: Wistar, rat, cerebral cortices of rats, probe [3H] Nitrendipine; compound concentration 10 uM; target entry is the homologue from another species
[2] = target: T1, Alpha-1A adrenergic receptor (Homo sapiens) (UniProt P35348); test: Inhibition of Adrenergic alpha1A at compound concentration of 10.0 uM in the Eurofins-Panlabs radioligand binding assay (Eurofins_assay_203110); parameters: ligand concentration 0.25 nM; conditions: Rattus norvegicus; Compound concentration 10.0 uM
T1 sequence (whole entry): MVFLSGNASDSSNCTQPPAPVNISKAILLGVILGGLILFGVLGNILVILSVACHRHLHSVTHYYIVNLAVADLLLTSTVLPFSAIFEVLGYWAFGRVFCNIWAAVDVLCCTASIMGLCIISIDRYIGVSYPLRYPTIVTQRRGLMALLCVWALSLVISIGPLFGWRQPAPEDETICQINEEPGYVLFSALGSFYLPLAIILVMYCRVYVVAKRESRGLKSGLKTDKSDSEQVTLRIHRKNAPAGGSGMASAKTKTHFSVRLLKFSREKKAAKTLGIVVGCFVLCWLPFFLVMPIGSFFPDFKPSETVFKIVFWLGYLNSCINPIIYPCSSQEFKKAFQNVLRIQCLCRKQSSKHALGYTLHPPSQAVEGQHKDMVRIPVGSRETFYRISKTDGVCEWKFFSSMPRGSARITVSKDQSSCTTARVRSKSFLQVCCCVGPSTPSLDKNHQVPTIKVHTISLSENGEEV

[3] = target: Tyrosine-protein kinase ABL2 (Homo sapiens, UniProt P42684); test: Arg(ABL2LGF1) Takeda global kinase panel
Aurora kinase B = Aurora kinase B (Homo sapiens, UniProt Q96GD4); test: AurB [Aur1(AURBPGE1)] Takeda global kinase panel
[4] = target: BMP-2-inducible protein kinase (Homo sapiens, UniProt Q9NSY1); test: BIKE(BM2KLGY1) Takeda global kinase panel
[5] = target: Tyrosine-protein kinase BTK (Homo sapiens, UniProt Q06187); test: BTK(BTK1CGF1) Takeda global kinase panel
[6] = target: Calcium/calmodulin-dependent protein kinase type 1G (Homo sapiens, UniProt Q96NX5); test: CaMK1gamma(CA1GLGN1) Takeda global kinase panel
[7] = target: Peripheral plasma membrane protein CASK (Homo sapiens, UniProt O14936); test: CASK(CASKLGY1) Takeda global kinase panel
[8] = target: Cyclin-dependent kinase 5 (Homo sapiens, UniProt Q00535); test: CDK5(CDK5CGS1) Takeda global kinase panel
[9] = target: Citron Rho-interacting kinase (Homo sapiens, UniProt O14578); test: CRIK(CIT1LGY1) Takeda global kinase panel
[10] = target: Casein kinase I isoform gamma-3 (Homo sapiens, UniProt Q9Y6M4); test: CK1gamma3(C1G3LGI5) Takeda global kinase panel
Myotonin-protein kinase = Myotonin-protein kinase (Homo sapiens, UniProt Q09013); test: DMPK(DMPKLGF1) Takeda global kinase panel
Ephrin type-A receptor 8 = Ephrin type-A receptor 8 (Homo sapiens, UniProt P29322); test: EphA8(EPA8LGF1) Takeda global kinase panel
[11] = target: Glycogen synthase kinase-3 beta (Homo sapiens, UniProt P49841); test: GSK3beta(GS3BLGM1) Takeda global kinase panel
[12] = target: Serine/threonine-protein kinase ICK (Homo sapiens, UniProt Q9UPZ9); test: ICK(ICK1LGP1) Takeda global kinase panel
Insulin receptor = Insulin receptor (Homo sapiens, UniProt P06213); test: InSR(INSRLGY1) Takeda global kinase panel
[13] = target: Serine/threonine-protein kinase LATS2 (Homo sapiens, UniProt Q9NRM7); test: LATS2(LAT2LGY1) Takeda global kinase panel
[14] = target: Mitogen-activated protein kinase kinase kinase 5 (Homo sapiens, UniProt Q99683); test: ASK [MAP3K5(M3K5LGA1)] Takeda global kinase panel
[15] = target: Mitogen-activated protein kinase 3 (Homo sapiens, UniProt P27361); test: ERK1(MAP3LGY1) Takeda global kinase panel
[16] = target: Microtubule-associated serine/threonine-protein kinase 4 (Homo sapiens, UniProt O15021); test: MAST4(MAS4LGRD) Takeda global kinase panel
[17] = target: Tyrosine-protein kinase Mer (Homo sapiens, UniProt Q12866); test: Mer(MERTLGF1) Takeda global kinase panel
[18] = target: Serine/threonine-protein kinase Nek2 (Homo sapiens, UniProt P51955); test: Nek2(NEK2LHFA) Takeda global kinase panel
[19] = target: NUAK family SNF1-like kinase 1 (Homo sapiens, UniProt O60285); test: NuaK1(NUA1LGF5) Takeda global kinase panel
[20] = target: Serine/threonine-protein kinase pim-2 (Homo sapiens, UniProt Q9P1W9); test: Pim2(PIM2LHY1) Takeda global kinase panel
[21] = target: Protein kinase C theta type (Homo sapiens, UniProt Q04759); test: PKCtheta(PRKQLGM5) Takeda global kinase panel
[22] = target: Protein kinase C zeta type (Homo sapiens, UniProt Q05513); test: PKCzeta(PRKZLGP1) Takeda global kinase panel
[23] = target: Serine/threonine-protein kinase D2 (Homo sapiens, UniProt Q9BZL6); test: PKD2(PRD2LHY1) Takeda global kinase panel
[24] = target: Ribosomal protein S6 kinase alpha-6 (Homo sapiens, UniProt Q9UK32); test: RSK4(R6A6LGF1) Takeda global kinase panel
[25] = target: Ribosomal protein S6 kinase beta-1 (Homo sapiens, UniProt P23443); test: p70S6K(R6B1CGF1) Takeda global kinase panel
[26] = target: Tyrosine-protein kinase Tec (Homo sapiens, UniProt P42680); test: TEC(TEC1CGD1) Takeda global kinase panel
[27] = target: Dual specificity testis-specific protein kinase 2 (Homo sapiens, UniProt Q96S53); test: TESK2(TES2LGRL) Takeda global kinase panel
[28] = target: Phosphatidylinositol 4,5-bisphosphate 3-kinase catalytic subunit alpha isoform (Homo sapiens, UniProt P42336); test: PI3KCA(PI3ACGR1) Takeda global kinase panel
[29] = target: Phosphatidylinositol 4,5-bisphosphate 3-kinase catalytic subunit delta isoform (Homo sapiens, UniProt O00329); test: PI3KCD(PI3DCGRK) Takeda global kinase panel
[30] = target: Adenosine receptor A2a (Homo sapiens) (UniProt P29274); conditions: Compound concentration 10.0 uM
[31] = target: Adenosine receptor A3 (Homo sapiens) (UniProt P0DMS8); conditions: Compound concentration 10.0 uM
[32] = target: Mu-type opioid receptor (Homo sapiens) (UniProt P35372); conditions: Compound concentration 10.0 uM
[33] = target: Glutamate receptor ionotropic, kainate (Rattus norvegicus) (UniProt P22756+Q01812+P42260+P42264+Q63273); conditions: Compound concentration 10.0 uM

Insulin receptor, sequence (P06213 28-758 limits assumed): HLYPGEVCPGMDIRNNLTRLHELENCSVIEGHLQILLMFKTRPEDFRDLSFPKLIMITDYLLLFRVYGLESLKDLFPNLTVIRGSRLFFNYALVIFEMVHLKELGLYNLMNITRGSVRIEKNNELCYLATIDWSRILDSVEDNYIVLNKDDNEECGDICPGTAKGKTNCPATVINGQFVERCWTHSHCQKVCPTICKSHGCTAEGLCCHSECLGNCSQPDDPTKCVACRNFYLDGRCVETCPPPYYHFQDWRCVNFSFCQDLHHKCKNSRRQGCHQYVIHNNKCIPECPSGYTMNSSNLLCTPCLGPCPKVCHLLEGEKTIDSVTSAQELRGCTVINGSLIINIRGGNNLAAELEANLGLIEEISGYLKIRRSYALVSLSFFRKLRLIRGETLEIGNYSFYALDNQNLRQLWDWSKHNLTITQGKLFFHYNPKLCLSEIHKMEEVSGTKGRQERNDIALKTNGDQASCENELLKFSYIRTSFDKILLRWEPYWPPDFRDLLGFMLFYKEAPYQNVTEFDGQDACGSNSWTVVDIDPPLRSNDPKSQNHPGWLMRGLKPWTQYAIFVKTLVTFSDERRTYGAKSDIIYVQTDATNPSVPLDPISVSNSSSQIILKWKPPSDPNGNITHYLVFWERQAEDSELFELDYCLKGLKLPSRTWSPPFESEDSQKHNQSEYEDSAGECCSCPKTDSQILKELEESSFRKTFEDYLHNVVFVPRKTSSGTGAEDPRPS
Insulin receptor, sequence (P06213 763-1382 limits assumed): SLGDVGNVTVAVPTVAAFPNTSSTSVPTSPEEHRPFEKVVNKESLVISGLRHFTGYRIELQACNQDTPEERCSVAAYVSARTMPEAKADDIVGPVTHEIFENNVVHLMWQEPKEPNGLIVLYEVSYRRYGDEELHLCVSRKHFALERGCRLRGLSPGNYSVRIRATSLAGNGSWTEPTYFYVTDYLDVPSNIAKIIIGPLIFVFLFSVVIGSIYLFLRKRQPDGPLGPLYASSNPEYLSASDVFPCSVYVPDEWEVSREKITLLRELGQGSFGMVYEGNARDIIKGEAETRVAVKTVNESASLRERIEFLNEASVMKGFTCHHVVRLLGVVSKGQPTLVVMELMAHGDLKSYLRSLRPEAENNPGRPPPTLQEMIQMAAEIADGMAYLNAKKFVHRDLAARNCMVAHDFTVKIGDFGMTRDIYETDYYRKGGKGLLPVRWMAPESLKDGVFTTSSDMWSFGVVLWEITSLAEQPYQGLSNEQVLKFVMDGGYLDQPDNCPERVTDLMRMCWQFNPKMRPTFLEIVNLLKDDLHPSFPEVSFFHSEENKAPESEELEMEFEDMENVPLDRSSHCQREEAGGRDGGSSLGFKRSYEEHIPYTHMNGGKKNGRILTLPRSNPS
Adenosine receptor A2a (Homo sapiens), sequence (P29274 whole entry): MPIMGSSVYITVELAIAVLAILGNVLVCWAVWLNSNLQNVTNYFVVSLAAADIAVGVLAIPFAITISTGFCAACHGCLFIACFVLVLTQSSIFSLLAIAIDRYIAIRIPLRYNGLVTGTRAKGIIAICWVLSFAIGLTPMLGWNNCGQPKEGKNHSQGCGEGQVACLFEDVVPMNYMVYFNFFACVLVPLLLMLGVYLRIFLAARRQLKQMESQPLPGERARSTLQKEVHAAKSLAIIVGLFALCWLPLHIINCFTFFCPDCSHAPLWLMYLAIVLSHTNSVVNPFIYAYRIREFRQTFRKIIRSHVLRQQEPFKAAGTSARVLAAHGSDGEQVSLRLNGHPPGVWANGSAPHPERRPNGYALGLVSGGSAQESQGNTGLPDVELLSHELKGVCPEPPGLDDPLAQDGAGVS
Serine/threonine-protein kinase LATS2, sequence (Q9NRM7 whole entry): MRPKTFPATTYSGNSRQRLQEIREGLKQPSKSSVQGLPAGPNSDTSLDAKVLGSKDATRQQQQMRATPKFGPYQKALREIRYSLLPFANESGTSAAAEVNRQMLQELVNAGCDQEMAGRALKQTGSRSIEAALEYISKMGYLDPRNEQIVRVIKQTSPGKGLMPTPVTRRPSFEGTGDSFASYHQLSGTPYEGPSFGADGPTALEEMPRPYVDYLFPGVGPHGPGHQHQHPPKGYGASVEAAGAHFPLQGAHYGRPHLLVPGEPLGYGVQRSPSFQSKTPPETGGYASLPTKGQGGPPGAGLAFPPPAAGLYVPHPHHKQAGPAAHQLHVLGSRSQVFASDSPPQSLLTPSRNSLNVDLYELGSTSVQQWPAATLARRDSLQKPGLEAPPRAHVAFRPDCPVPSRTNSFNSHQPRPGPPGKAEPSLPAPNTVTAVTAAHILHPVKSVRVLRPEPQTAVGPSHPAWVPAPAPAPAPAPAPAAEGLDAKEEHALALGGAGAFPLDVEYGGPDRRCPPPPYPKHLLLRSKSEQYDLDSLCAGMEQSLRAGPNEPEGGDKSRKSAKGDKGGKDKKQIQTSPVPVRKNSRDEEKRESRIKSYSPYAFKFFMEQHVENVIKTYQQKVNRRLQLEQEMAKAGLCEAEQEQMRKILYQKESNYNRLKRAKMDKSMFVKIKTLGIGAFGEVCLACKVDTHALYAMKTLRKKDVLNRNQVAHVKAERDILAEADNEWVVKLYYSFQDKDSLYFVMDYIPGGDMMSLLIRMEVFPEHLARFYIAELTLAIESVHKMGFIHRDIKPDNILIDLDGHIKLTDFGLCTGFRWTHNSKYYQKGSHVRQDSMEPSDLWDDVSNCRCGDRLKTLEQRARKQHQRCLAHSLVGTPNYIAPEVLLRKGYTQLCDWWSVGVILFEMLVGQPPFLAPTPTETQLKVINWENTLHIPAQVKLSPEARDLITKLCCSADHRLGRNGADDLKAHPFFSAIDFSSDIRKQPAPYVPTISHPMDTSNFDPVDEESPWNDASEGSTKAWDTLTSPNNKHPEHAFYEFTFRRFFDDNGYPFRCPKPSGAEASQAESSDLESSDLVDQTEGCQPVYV
Peripheral plasma membrane protein CASK, sequence (O14936 whole entry): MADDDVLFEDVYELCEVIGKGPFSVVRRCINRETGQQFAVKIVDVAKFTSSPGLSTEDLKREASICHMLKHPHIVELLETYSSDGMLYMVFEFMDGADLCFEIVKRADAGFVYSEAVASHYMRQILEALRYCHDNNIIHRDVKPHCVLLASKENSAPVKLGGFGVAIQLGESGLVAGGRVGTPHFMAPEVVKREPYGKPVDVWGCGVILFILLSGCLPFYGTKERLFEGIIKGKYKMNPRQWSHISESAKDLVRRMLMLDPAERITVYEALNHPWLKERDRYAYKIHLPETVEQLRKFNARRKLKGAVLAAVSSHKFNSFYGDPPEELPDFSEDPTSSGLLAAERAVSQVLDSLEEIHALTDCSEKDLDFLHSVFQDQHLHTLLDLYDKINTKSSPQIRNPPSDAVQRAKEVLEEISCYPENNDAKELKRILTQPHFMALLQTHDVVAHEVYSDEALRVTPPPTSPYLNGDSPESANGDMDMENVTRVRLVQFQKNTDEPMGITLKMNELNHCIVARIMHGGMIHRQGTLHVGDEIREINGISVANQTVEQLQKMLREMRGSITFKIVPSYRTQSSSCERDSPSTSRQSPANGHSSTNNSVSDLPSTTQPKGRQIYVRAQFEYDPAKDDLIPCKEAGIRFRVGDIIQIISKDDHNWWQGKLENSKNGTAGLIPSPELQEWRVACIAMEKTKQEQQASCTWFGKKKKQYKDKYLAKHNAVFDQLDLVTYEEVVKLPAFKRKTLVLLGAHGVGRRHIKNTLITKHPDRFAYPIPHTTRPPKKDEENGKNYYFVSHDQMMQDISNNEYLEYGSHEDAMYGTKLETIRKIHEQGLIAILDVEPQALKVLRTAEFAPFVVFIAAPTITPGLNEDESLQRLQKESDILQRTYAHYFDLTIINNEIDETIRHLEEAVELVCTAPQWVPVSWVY
Aurora kinase B, sequence (Q96GD4 whole entry): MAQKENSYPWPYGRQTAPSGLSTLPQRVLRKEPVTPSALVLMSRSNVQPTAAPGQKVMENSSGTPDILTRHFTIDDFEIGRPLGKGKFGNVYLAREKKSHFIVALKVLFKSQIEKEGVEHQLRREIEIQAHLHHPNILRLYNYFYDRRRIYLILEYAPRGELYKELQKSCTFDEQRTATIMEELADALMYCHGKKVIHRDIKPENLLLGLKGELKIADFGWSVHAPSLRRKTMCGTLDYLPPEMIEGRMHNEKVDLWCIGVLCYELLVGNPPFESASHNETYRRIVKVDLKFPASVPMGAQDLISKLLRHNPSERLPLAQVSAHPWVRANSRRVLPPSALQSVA
Protein kinase C theta type, sequence (Q04759 whole entry): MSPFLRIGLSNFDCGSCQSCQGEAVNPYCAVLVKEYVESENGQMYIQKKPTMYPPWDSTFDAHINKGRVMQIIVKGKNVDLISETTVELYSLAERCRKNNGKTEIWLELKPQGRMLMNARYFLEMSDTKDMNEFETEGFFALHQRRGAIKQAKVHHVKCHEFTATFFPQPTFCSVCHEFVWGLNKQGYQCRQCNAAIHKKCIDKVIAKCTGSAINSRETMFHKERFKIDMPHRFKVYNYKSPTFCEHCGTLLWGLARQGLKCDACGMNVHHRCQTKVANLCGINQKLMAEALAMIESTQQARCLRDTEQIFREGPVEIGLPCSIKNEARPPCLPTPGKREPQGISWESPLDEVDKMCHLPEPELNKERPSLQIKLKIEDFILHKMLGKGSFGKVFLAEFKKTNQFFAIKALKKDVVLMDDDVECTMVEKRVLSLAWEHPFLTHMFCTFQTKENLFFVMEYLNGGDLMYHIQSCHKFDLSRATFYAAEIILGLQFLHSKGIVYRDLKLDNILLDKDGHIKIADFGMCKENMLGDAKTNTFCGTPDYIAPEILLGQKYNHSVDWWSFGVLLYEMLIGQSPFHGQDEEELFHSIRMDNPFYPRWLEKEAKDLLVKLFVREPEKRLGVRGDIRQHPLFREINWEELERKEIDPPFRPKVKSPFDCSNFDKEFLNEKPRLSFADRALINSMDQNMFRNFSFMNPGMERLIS

SMILES: CN1C(=O)[C@@H](N2CCc3cn(Cc4ccccc4)nc3C2=O)COc2ccccc21 [TP-030-1]
- inhibition at 90 min, 10 µM [1]: -18% (not active)
- inhibition [2]: -1%
- IC50 [3]: 1000 nM
- IC50 (Aurora kinase B): 1000 nM
- IC50 [4]: 1000 nM
- IC50 [5]: 1000 nM
- IC50 [6]: 1000 nM
- IC50 [7]: 1000 nM
- IC50 [8]: 1000 nM
- IC50 [9]: 1000 nM
- IC50 [10]: 1000 nM
- IC50 (Myotonin-protein kinase): 1000 nM
- IC50 (Ephrin type-A receptor 8): 1000 nM
- IC50 [11]: 1000 nM
- IC50 [12]: 1000 nM
- IC50 (Insulin receptor): 1000 nM
- IC50 [13]: 1000 nM
- IC50 [14]: 1000 nM
- IC50 [15]: 1000 nM
- IC50 [16]: 1000 nM
- IC50 [17]: 1000 nM
- IC50 [18]: 1000 nM
- IC50 [19]: 1000 nM
- IC50 [20]: 1000 nM
- IC50 [21]: 1000 nM
- IC50 [22]: 1000 nM
- IC50 [23]: 1000 nM
- IC50 [24]: 1000 nM
- IC50 [25]: 1000 nM
- IC50 [26]: 1000 nM
- IC50 [27]: 1000 nM
- IC50 [28]: 1000 nM
- IC50 [29]: 1000 nM
- inhibition [30]: 10%
- inhibition [31]: 15%
- inhibition [32]: 19%
- inhibition [33]: -2%

SMILES: CN1C(=O)[C@@H](N2CCc3cn(CC4CCS(=O)(=O)CC4)nc3C2=O)COc2ccccc21 [TP-030n]
- inhibition at 90 min, 10 µM [1]: -6% (not active)
- inhibition [2]: 1%
- IC50 [3]: 1000 nM
- IC50 (Aurora kinase B): 1000 nM
- IC50 [4]: 1000 nM
- IC50 [5]: 1000 nM
- IC50 [6]: 1000 nM
- IC50 [7]: 1000 nM
- IC50 [8]: 1000 nM
- IC50 [9]: 1000 nM
- IC50 [10]: 1000 nM
- IC50 (Myotonin-protein kinase): 1000 nM
- IC50 (Ephrin type-A receptor 8): 1000 nM
- IC50 [11]: 1000 nM
- IC50 [12]: 1000 nM
- IC50 (Insulin receptor): 1000 nM
- IC50 [13]: 1000 nM
- IC50 [14]: 1000 nM
- IC50 [15]: 1000 nM
- IC50 [16]: 1000 nM
- IC50 [17]: 1000 nM
- IC50 [18]: 1000 nM
- IC50 [19]: 1000 nM
- IC50 [20]: 1000 nM
- IC50 [21]: 1000 nM
- IC50 [22]: 1000 nM
- IC50 [23]: 1000 nM
- IC50 [24]: 1000 nM
- IC50 [25]: 1000 nM
- IC50 [26]: 1000 nM
- IC50 [27]: 1000 nM
- IC50 [28]: 1000 nM
- IC50 [29]: 1000 nM
- inhibition [30]: -8%
- inhibition [31]: 0%
- inhibition [32]: 4%
- inhibition [33]: 7%
